{"source": "patent US20050176650A1", "about": "“Stable parenteral formulation of levomepromazine and a method for stabilizing said formulation” (Xanodyne Pharmacal, Inc., priority 2004, published 2005)", "origin": "cited, not measured here", "key": {"[1]": {"conditions": "prior art description"}, "traumatic shock": {"tested_on": "traumatic shock", "conditions": "rats; prior art description"}, "[2]": {"conditions": "rats; prior art description"}}}
{"smiles": "COc1ccc2c(c1)N(C[C@H](C)CN(C)C)c1ccccc1S2", "note": "[Levomepromazine, (−)-(2R)-3-(2-methoxy-10H-phenothiazin-10-yl)-N,N,2-trimethylpropan-1-amine]", "values": [{"measurement": "hypothermic action, potency relative to chlorpromazine", "setting": "[1]", "result": "three times more potent than that of chlorpromazine"}, {"measurement": "protection against traumatic shock", "setting": "traumatic shock", "result": "readily protect against traumatic shock"}, {"measurement": "local anesthesia following parasciatic injections", "setting": "[2]", "result": "produce deep local anesthesia"}]}
